Test results as given in ChEMBL document CHEMBL1142263, “Structural analogs of tylophora alkaloids may not be functional analogs” (Bioorg Med Chem Lett, 2008).
Calls of active or inactive are those of the source. No cut-off for these calls is given here.

Columns and labels:
[1] = Inhibition of AP1-mediated transcription in human HepG cells; assay type: cell-based
[2] = test system: CCRF-CEM; assay: Growth inhibition of human CEM cells; assay type: functional
[3] = Inhibition of CRE-mediated transcription in human HepG cells; assay type: cell-based
[4] = Growth inhibition of human HepG cells; assay type: functional
[5] = Inhibition of GRE-mediated transcription in human HepG cells; assay type: cell-based
[6] = Inhibition of NF-kappaB-mediated transcription in human HepG cells; assay type: cell-based
[7] = test system: PANC-1; assay: Growth inhibition of human PANC1 cells; assay type: functional
[8] = Ratio of IC50 for NF-kappaB-mediated transcription in human HepG cells to GI50 for human HepG2 cells; assay type: functional
[9] = test system: HepG; assay: Inhibition of RNA synthesis in human HepG cells; assay type: functional, cell-based
[10] = Ratio of IC50 for GRE-mediated transcription in human HepG cells to GI50 for human HepG2 cells; assay type: functional
[11] = Ratio of IC50 for CRE-mediated transcription in human HepG cells to GI50 for human HepG2 cells; assay type: functional
[12] = test system: HepG; assay: Inhibition of protein synthesis in human HepG cells; assay type: functional, cell-based
[13] = test system: HepG; assay: Inhibition of DNA synthesis in human HepG cells; assay type: functional, cell-based
[14] = Ratio of IC50 for AP1-mediated transcription in human HepG cells to GI50 for human HepG2 cells; assay type: functional

Compound | IC50 [1] | GI50 [2] | IC50 [3] | GI50 [4] | IC50 [5] | IC50 [6] | GI50 [7] | Activity [8] | Activity [9] | Activity [10] | Activity [11] | Activity [12] | Activity [13] | Activity [14] | Ratio [8]
COc1ccc2c(CN3CCC[C@H]3C(=O)O)cc3cc4c(cc3c2c1)OCO4 | 27 µM | 6200 nM | 25 µM | 8600 nM | > 30 µM | 23500 nM | 7400 nM |  |  |  |  |  |  |  | 
COc1ccc2c(CNCCCCCO)cc3cc4c(cc3c2c1)OCO4 | 8.7 µM | 2000 nM | 8.6 µM | 2300 nM | 9.2 µM | 7900 nM | 2200 nM |  |  |  |  |  |  |  | 
COc1ccc2c(CN3CCCC[C@H]3C(=O)O)cc3cc4c(cc3c2c1)OCO4 | 6.2 µM | 1700 nM | 12.1 µM | 3000 nM | 7.2 µM | 7000 nM | 2300 nM |  |  |  |  |  |  |  | 
COc1ccc2cc(C[C@H]3CCCCN3)c3cc(OC)c(OC)cc3c2c1 | 9.78 µM | 567 nM | 12 µM | 1720 nM | 4.5 µM | 2170 nM | 904 nM | 1.3 | Dose-dependent effect | 2.6 | 7 | Dose-dependent effect | Dose-dependent effect | 5.7 | 
COc1ccc2c(CN3CCC[C@H]3CO)cc3cc4c(cc3c2c1)OCO4 | > 30 µM | 2700 nM | 24 µM | 5400 nM | 19 µM | 21000 nM | 6200 nM |  | Active |  |  | inactive | Dose-dependent effect |  | 
COc1ccc2cc(C)c3cc(OC)c(OC)cc3c2c1 | > 15 µM | > 2000 nM | > 15 µM | > 10000 nM | > 15 µM | > 10000 nM | > 10000 nM |  |  |  |  |  |  |  | 
COc1cc2c3c(c4cc(OC)c(OC)cc4c2cc1OC)CN1CCC[C@@H]1C3 [TYLOPHORINE] | 2.26 µM | 67 nM | 7.91 µM | 33 nM | 0.534 µM | 317 nM | 29 nM |  |  |  |  |  |  |  | 
COc1ccc2c(CN3CCCC[C@H]3CO)cc3cc4c(cc3c2c1)OCO4 | 10 µM | 1600 nM | 18.5 µM | 3100 nM | 20.7 µM | 10200 nM | 2300 nM |  |  |  |  |  |  |  | 
COc1ccc2c3c(c4cc5c(cc4c2c1)OCO5)C[C@H]1CCCN1C3 | 3.38 µM | 323 nM | 2.57 µM | 371 nM | 2.44 µM | 1240 nM | 156 nM |  |  |  |  | Active | Dose-dependent effect |  | 
COc1cc2c3c(c4cc(OC)c(OC)cc4c2cc1OC)CN1CCC[C@H]1C3 [(S)-TYLOPHORINE] | > 0.3 µM | 15 nM | > 0.3 µM | 11 nM | 0.229 µM | 41 nM | 12 nM |  |  |  |  |  |  |  | 
COc1ccc2c3c(c4cc(OC)c(OC)cc4c2c1)CC1CCCCN1C3 (racemic) | 0.0186 µM | 2 nM | 0.025 µM | 1.5 nM | 0.01 µM | 1.4 nM | 0.5 nM |  |  |  |  |  |  |  | 
COc1ccc2c3c(c4cc(OC)c(OC)cc4c2c1)C[C@H]1CCCN1C3 [(-)-ANTOFINE] | 0.135 µM | 5.2 nM | 0.167 µM | 4.9 nM | 0.024 µM | 7.3 nM | 2.2 nM |  | inactive | 4.9 | 34 | Active | Dose-dependent effect | 28 | 1.5
